From patent US8551937B2, “Peptide having an extending action for half-life of object peptide in plasma” (priority 2008, dated 2013)
Where a SMILES comes first, the peptide text is derived from it.

Test: Motilin immunoreactivity concentration in plasma, half-life after intravenous administration (Example 8)
Conditions: SD, rat, in vivo; intravenous, 10 nmol/kg, male rats, N = 3; read-out: T½ Mean Value
Summary of the method: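 Male SD rats (7 weeks, n=3/group) received human motilin or derivative at 10 nmol/kg i.v. via tail vein; arterial blood was sampled up to 60 min, with EDTA and aprotinin added. Plasma motilin immunoreactivity was measured by competitive RIA using a rabbit polyclonal antibody against native motilin residues 1–12 and ^125I-[Tyr^7] human motilin tracer.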

Question: For `CC[C@H](C)[C@H](NC(=O)[C@@H]1CCCN1C(=O)[C@@H](NC(=O)[C@@H](N)Cc1ccccc1)C(C)C)C(=O)N[C@@H](Cc1ccccc1)C(=O)N[C@H](C(=O)N[C@@H](Cc1ccc(O)cc1)C(=O)NCC(=O)N[C@@H](CCC(=O)O)C(=O)N[C@@H](CC(C)C)C(=O)N[C@@H](CCC(N)=O)C(=O)N[C@@H](CCCNC(=N)N)C(=O)N[C@H](C(=O)N[C@@H](CCC(N)=O)C(=O)N[C@@H](CCC(N)=O)C(=O)N[C@@H](CCCCN)C(=O)N[C@@H](CCCNC(=N)N)C(=O)N[C@@H](CC(=O)O)C(=O)N[C@@H](CO)C(=O)N[C@@H](CCCNC(=N)N)C(=O)N[C@@H](CCCNC(=N)N)C(=O)N1CCC[C@H]1C(=O)N1CCC[C@H]1C(=O)N[C@@H](C)C(=O)N[C@@H](CCCCN)C(=O)N[C@@H](CC(C)C)C(=O)N[C@@H](CCC(N)=O)C(=O)N1CCC[C@H]1C(=O)N[C@@H](CCCNC(=N)N)C(=O)O)C(C)C)[C@@H](C)O` [Chimeric motilin (X)(MG-17E/D)] (H-FVPIFTYGELQRVQQKRDSRRPPAKLQPR-OH), which half-life is on record?
Answer: 7.89 min

Same assay, conditions: male, SD, rat, in vivo, iv, 10 nmol/kg

Question: With `CC[C@H](C)[C@H](NC(=O)[C@@H]1CCCN1C(=O)[C@@H](NC(=O)[C@@H](N)Cc1ccccc1)C(C)C)C(=O)N[C@@H](Cc1ccccc1)C(=O)N[C@H](C(=O)N[C@@H](Cc1ccc(O)cc1)C(=O)NCC(=O)N[C@@H](CCC(=O)O)C(=O)N[C@@H](CC(C)C)C(=O)N[C@@H](CCC(N)=O)C(=O)N[C@@H](CCCNC(=N)N)C(=O)N[C@H](C(=O)N[C@@H](CCC(N)=O)C(=O)N[C@@H](CCC(N)=O)C(=O)N[C@@H](CCCNC(=N)N)C(=O)N[C@@H](CCCCN)C(=O)N[C@@H](CCC(=O)O)C(=O)N[C@@H](CO)C(=O)N[C@@H](CCCCN)C(=O)N[C@@H](CCCCN)C(=O)N1CCC[C@H]1C(=O)N1CCC[C@H]1C(=O)N[C@@H](C)C(=O)N[C@@H](CCC(=O)O)C(=O)N[C@@H](CC(C)C)C(=O)N[C@@H](C)C(=O)N[C@@H](C)C(=O)N[C@@H](CC(C)C)C(=O)N[C@@H](CCCCN)C(=O)N[C@@H](C)C(=O)O)C(C)C)[C@@H](C)O` [Chimeric motilin (VIII)(MG-H4)] (H-FVPIFTYGELQRVQQRKESKKPPAELAALKA-OH; N-terminus and C-terminus assumed) as the molecule, how does the half-life read?
Answer: 11.6 min

Question: With `CC[C@H](C)[C@H](NC(=O)[C@@H]1CCCN1C(=O)[C@@H](NC(=O)[C@@H](N)Cc1ccccc1)C(C)C)C(=O)N[C@@H](Cc1ccccc1)C(=O)N[C@H](C(=O)N[C@@H](Cc1ccc(O)cc1)C(=O)NCC(=O)N[C@@H](CCC(=O)O)C(=O)N[C@@H](CC(C)C)C(=O)N[C@@H](CCC(N)=O)C(=O)N[C@@H](CCCNC(=N)N)C(=O)N[C@H](C(=O)N[C@@H](CCC(N)=O)C(=O)N[C@@H](CCC(N)=O)C(=O)N[C@@H](CCCNC(=N)N)C(=O)N[C@@H](CCCCN)C(=O)N[C@@H](CCCCN)C(=O)N[C@@H](CCCCN)C(=O)N1CCC[C@H]1C(=O)N1CCC[C@H]1C(=O)N[C@@H](C)C(=O)N[C@@H](CCCCN)C(=O)N[C@@H](CC(C)C)C(=O)N[C@@H](CCC(N)=O)C(=O)N1CCC[C@H]1C(=O)N[C@@H](CCCNC(=N)N)C(=O)O)C(C)C)[C@@H](C)O` [Chimeric motilin (W)(MG-dES)] (H-FVPIFTYGELQRVQQRKKKPPAKLQPR-OH; N-terminus and C-terminus assumed) as the molecule, how does the half-life read?
Answer: 5.39 min

Question: With `CC[C@H](C)[C@H](NC(=O)[C@H](CCSC)NC(=O)[C@@H]1CCCN1C(=O)[C@@H]1CCCN1C(=O)[C@H](CCCCN)NC(=O)[C@H](CCCCN)NC(=O)[C@H](CO)NC(=O)[C@H](CCC(=O)O)NC(=O)[C@H](CCCCN)NC(=O)[C@H](CCCNC(=N)N)NC(=O)[C@H](CCC(N)=O)NC(=O)[C@H](CCC(N)=O)NC(=O)[C@@H](NC(=O)[C@H](CCCNC(=N)N)NC(=O)[C@H](CCC(N)=O)NC(=O)[C@H](CC(C)C)NC(=O)[C@H](CCC(=O)O)NC(=O)CNC(=O)[C@H](Cc1ccc(O)cc1)NC(=O)[C@@H](NC(=O)[C@H](Cc1ccccc1)NC(=O)[C@@H](NC(=O)[C@@H]1CCCN1C(=O)[C@@H](NC(=O)[C@@H](N)Cc1ccccc1)C(C)C)[C@@H](C)CC)[C@@H](C)O)C(C)C)C(=O)N[C@H](C(=O)N[C@H](C(=O)N[C@@H](CCCNC(=N)N)C(=O)O)[C@@H](C)CC)[C@@H](C)O` [Chimeric motilin (X)(MG-S)] (H-FVPIFTYGELQRVQQRKESKKPPMITIR-OH; N-terminus and C-terminus assumed) as the molecule, how does the half-life read?
Answer: 5.25 min

Question: With `CC[C@H](C)[C@H](NC(=O)[C@@H]1CCCN1C(=O)[C@@H](NC(=O)[C@@H](N)Cc1ccccc1)C(C)C)C(=O)N[C@@H](Cc1ccccc1)C(=O)N[C@H](C(=O)N[C@@H](Cc1ccc(O)cc1)C(=O)NCC(=O)N[C@@H](CCC(=O)O)C(=O)N[C@@H](CC(C)C)C(=O)N[C@@H](CCC(N)=O)C(=O)N[C@@H](CCCNC(=N)N)C(=O)N[C@@H](CCCCN)C(=O)N[C@@H](CCC(=O)O)C(=O)N[C@@H](CO)C(=O)N[C@@H](CCCCN)C(=O)N[C@@H](CCCCN)C(=O)N1CCC[C@H]1C(=O)N1CCC[C@H]1C(=O)N[C@@H](C)C(=O)N[C@@H](CCCCN)C(=O)N[C@@H](CC(C)C)C(=O)N[C@@H](C)C(=O)N[C@@H](C)C(=O)N[C@@H](CC(C)C)C(=O)N[C@@H](CCCCN)C(=O)N[C@@H](C)C(=O)O)[C@@H](C)O` [Chimeric motilin (XI) (MG-d12/14)] (H-FVPIFTYGELQRKESKKPPAKLAALKA-OH; N-terminus and C-terminus assumed) as the molecule, how does the half-life read?
Answer: 10.3 min

Question: Which half-life does the source give for `CC[C@H](C)[C@H](NC(=O)[C@@H]1CCCN1C(=O)[C@@H](NC(=O)[C@@H](N)Cc1ccccc1)C(C)C)C(=O)N[C@@H](Cc1ccccc1)C(=O)N[C@H](C(=O)N[C@@H](Cc1ccc(O)cc1)C(=O)NCC(=O)N[C@@H](CCC(=O)O)C(=O)N[C@@H](CC(C)C)C(=O)N[C@@H](CCC(N)=O)C(=O)N[C@@H](CCCNC(=N)N)C(=O)N[C@H](C(=O)N[C@@H](CCC(N)=O)C(=O)N[C@@H](CCC(N)=O)C(=O)N[C@@H](CCCCN)C(=O)N[C@@H](CCCCN)C(=O)N[C@@H](C)C(=O)N[C@@H](Cc1ccc(O)cc1)C(=O)N[C@@H](CO)C(=O)N1CCC[C@H]1C(=O)N[C@@H](CC(=O)O)C(=O)N[C@@H](CCCCN)C(=O)N[C@@H](CCC(=O)O)C(=O)N[C@@H](CCCNC(=N)N)C(=O)N[C@@H](CCCCN)C(=O)N1CCC[C@H]1C(=O)N1CCC[C@H]1C(=O)N[C@@H](C)C(=O)N[C@@H](CC(C)C)C(=O)N[C@@H](CCC(N)=O)C(=O)N1CCC[C@H]1C(=O)N[C@@H](CCCNC(=N)N)C(=O)O)C(C)C)[C@@H](C)O` [Chimeric motilin (XII)(MGP1)] (H-FVPIFTYGELQRVQQKKAYSPDKERKPPALQPR-OH; N-terminus and C-terminus assumed) here?
Answer: 13 min
